According to PubChem BioAssay (NCI):
Values joined by “and” are separate entries in the source; they are usually repeats but may differ in a detail not shown here. Equal entries are not always repeated.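 Following 48 hours of exposure in 96-well plates, responses at five concentrations were used to interpolate endpoints linearly. At the GI50, growth is halved. TGI marks complete inhibition of growth.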

test system: IGROV1 ovarian; assay: inhibition of tumour cell growth, NCI panel, 48 h

Row | Structure (SMILES) | TGI | GI50
1 | O/N=C/C1C(OCc2ccccc2)C(OCc2ccccc2)C(OCc2ccccc2)CN1Cc1ccccc1 (configuration not stated) | 65.9 µM and > 100 µM | –
2 | O=C1NC(=O)C(c2cnc3ccccn23)=C1c1cn2c3c(cc(F)cc13)CN(C(=O)N1CCCCC1)CC2 | > 80 µM | 21 µM
3 | Clc1nc2ccccc2nc1CI | 17 µM | 6.47 µM
4 | Cn1nc(N)c2cc([C@@H]3Nc4ccc5[nH]ncc5c4[C@H]4C5CCC(C5)[C@@H]34)ccc21 (some centres not stated) | 22.8 µM | 0.756 µM
5 | O=C(O)C1C2C=CC(O2)C1C(=O)NCc1ccccn1 (configuration not stated) | > 100 µM | –
6 | O=C(OC(CNc1cc(=O)n(Cc2ccccc2)c(=O)n1Cc1ccccc1)CN1CCCC1)c1ccccc1 (configuration not stated) | > 100 µM | > 100 µM
7 | CCN(CC)CCCC(CNc1ccnc2cc(Cl)ccc12)c1ccc(Cl)cc1 (configuration not stated) | 7.47 µM and 4.55 µM | 2.42 µM and 1.6 µM
8 | CCOC(=O)CCCn1c(SC)nc2[nH]cc(-c3ccccc3)c2c1=O | 47 µM | 16.5 µM
9 | [Cl][Hg][c]1cc(Br)cc(Br)c1 | 3.41 µM | 1.47 µM
10 | CNC(=O)N(C)N=NCCCl | > 100 µM | –
11 | CCN1CCN(C(c2ccc(C(F)(F)F)cc2)c2ccc3cccnc3c2O)CC1 (configuration not stated) | 12.4 µM | 2.04 µM
12 | COc1ccc(C(C)=O)cc1N1C(=O)C2C(C1=O)C1(c3ccccc3)C(=O)C2(c2ccccc2)C(c2ccc(C)cc2)=C1c1ccc(C)cc1 (configuration not stated) | > 100 µM | > 100 µM
13 | O=C1c2cccc(NCCCNCCO)c2C(=O)c2cccc(NCCCNCCO)c21 | 8.22 µM and 9.3 µM | –
14 | CCN(CC)c1ccc2c(c1)OC(N)=C(C#N)C2c1cc(OC)c2c(c1)OCO2 (configuration not stated) | 33.7 µM | 0.104 µM
15 | N#CC(=C1C=CC(=NO)C=C1)c1ccccc1 | 4.53 µM | 1.3 µM
16 | CCCCCCCCCCCCCC1=NC(C)(C)CN1C(C)C | 2.26 µM | 1.08 µM
17 | COc1ccc(CN2C(=O)/C(=C\C(=O)c3ccc(OCCN4CCCCC4)cc3)c3ccccc32)cc1 | 4.48 µM | 2.08 µM
18 | CCC(C)n1ncn(-c2ccc(N3CCN(c4ccc(OCC5COC(Cn6cncn6)(c6ccc(Cl)cc6Cl)O5)cc4)CC3)cc2)c1=O (configuration not stated) | > 100 µM | 82.5 µM
19 | CC(C)CCN1c2nc(Nc3cc(F)c(O)c(F)c3)ncc2N(C)C(=O)C1C (configuration not stated) | > 61.2 µM | 8.83 µM
20 | O=C(CNc1ccc(Cl)cc1)Nc1ccc(-c2nc3ccccc3s2)cc1 | 12.9 µM | 5.79 µM
21 | Cc1nc2c(-c3cnc(N)nc3)nc(N3CCOCC3)nc2n1C(C)C | 0.262 µM and 0.286 µM | –
22 | CCCCCCCCCCCCOC1C(C(COC2OC(C3COC(C)(C)O3)C3OC(C)(C)OC23)NC(=O)Nc2ccc(C(=O)O)cc2)OC2OC(C)(C)OC21 (configuration not stated) | 4.87 µM | 2.11 µM
23 | CCN(CC)CCC(CNc1ccnc2cc(Cl)ccc12)c1ccc(OC)cc1 (configuration not stated) | 39.8 µM and 24.2 µM | 10.7 µM and 4.28 µM
24 | COc1ccc(/C=C(/C(=O)N2CCN(c3ccccc3)CC2)c2cc(OC)c(OC)c(OC)c2)cc1O | > 100 µM | 0.519 µM
25 | CCn1c(-c2nonc2N)nc2c(C#CC(C)(C)O)nc(OC[C@H](N)c3ccccc3)cc21 | 7.23 µM | 2.63 µM

test system: A549 NSCLC; assay: inhibition of tumour cell growth, NCI panel, 48 h

Row | Structure (SMILES) | GI50 | TGI
26 | C=CCCCCC/C=C\[C@H](O)C#CC#C/C=C/CO | 21.2 µM | 45.4 µM
27 | O/N=C/C1C(OCc2ccccc2)C(OCc2ccccc2)C(OCc2ccccc2)CN1Cc1ccccc1 (configuration not stated) | – | 25 µM and > 100 µM
28 | O=C1NC(=O)C(c2cnc3ccccn23)=C1c1cn2c3c(cc(F)cc13)CN(C(=O)N1CCCCC1)CC2 | 7.85 µM | 71.5 µM
29 | Clc1nc2ccccc2nc1CI | 19.2 µM | 38.6 µM
30 | Cn1nc(N)c2cc([C@@H]3Nc4ccc5[nH]ncc5c4[C@H]4C5CCC(C5)[C@@H]34)ccc21 (some centres not stated) | 0.699 µM | > 100 µM
31 | O=C(O)C1C2C=CC(O2)C1C(=O)NCc1ccccn1 (configuration not stated) | – | > 100 µM
32 | O=C(OC(CNc1cc(=O)n(Cc2ccccc2)c(=O)n1Cc1ccccc1)CN1CCCC1)c1ccccc1 (configuration not stated) | > 100 µM | > 100 µM
33 | CCN(CC)CCCC(CNc1ccnc2cc(Cl)ccc12)c1ccc(Cl)cc1 (configuration not stated) | 2.06 µM and 1.63 µM | 4.2 µM and 3.42 µM
34 | CCOC(=O)CCCn1c(SC)nc2[nH]cc(-c3ccccc3)c2c1=O | 12.2 µM | 36.2 µM
35 | [Cl][Hg][c]1cc(Br)cc(Br)c1 | 12.9 µM | 30.4 µM
36 | CNC(=O)N(C)N=NCCCl | – | > 100 µM
37 | CCN1CCN(C(c2ccc(C(F)(F)F)cc2)c2ccc3cccnc3c2O)CC1 (configuration not stated) | 1.31 µM | 12.1 µM
38 | COc1ccc(C(C)=O)cc1N1C(=O)C2C(C1=O)C1(c3ccccc3)C(=O)C2(c2ccccc2)C(c2ccc(C)cc2)=C1c1ccc(C)cc1 (configuration not stated) | > 100 µM | > 100 µM
39 | O=C1c2cccc(NCCCNCCO)c2C(=O)c2cccc(NCCCNCCO)c21 | – | 7.34 µM and 4.62 µM
40 | CCN(CC)c1ccc2c(c1)OC(N)=C(C#N)C2c1cc(OC)c2c(c1)OCO2 (configuration not stated) | 0.0322 µM | > 100 µM
41 | N#CC(=C1C=CC(=NO)C=C1)c1ccccc1 | 4.58 µM | > 37.2 µM
42 | CCCCCCCCCCCCCC1=NC(C)(C)CN1C(C)C | 1.76 µM | 3.25 µM
43 | COc1ccc(CN2C(=O)/C(=C\C(=O)c3ccc(OCCN4CCCCC4)cc3)c3ccccc32)cc1 | 15.9 µM | 31.2 µM
44 | CCC(C)n1ncn(-c2ccc(N3CCN(c4ccc(OCC5COC(Cn6cncn6)(c6ccc(Cl)cc6Cl)O5)cc4)CC3)cc2)c1=O (configuration not stated) | 35.8 µM | > 100 µM
45 | CC(C)CCN1c2nc(Nc3cc(F)c(O)c(F)c3)ncc2N(C)C(=O)C1C (configuration not stated) | 4.88 µM | 37.6 µM
46 | O=C(CNc1ccc(Cl)cc1)Nc1ccc(-c2nc3ccccc3s2)cc1 | 8.1 µM | 27.4 µM
47 | Cc1nc2c(-c3cnc(N)nc3)nc(N3CCOCC3)nc2n1C(C)C | – | 2.66 µM
48 | CCCCCCCCCCCCOC1C(C(COC2OC(C3COC(C)(C)O3)C3OC(C)(C)OC23)NC(=O)Nc2ccc(C(=O)O)cc2)OC2OC(C)(C)OC21 (configuration not stated) | 3.34 µM | 10.9 µM
49 | CCN(CC)CCC(CNc1ccnc2cc(Cl)ccc12)c1ccc(OC)cc1 (configuration not stated) | 16.3 µM and 11.3 µM | 32.5 µM and 26.1 µM
50 | COc1ccc(/C=C(/C(=O)N2CCN(c3ccccc3)CC2)c2cc(OC)c(OC)c(OC)c2)cc1O | 0.764 µM | > 100 µM
51 | CCn1c(-c2nonc2N)nc2c(C#CC(C)(C)O)nc(OC[C@H](N)c3ccccc3)cc21 | 3.69 µM | 7.45 µM

test system: SF-295 CNS; assay: inhibition of tumour cell growth, NCI panel, 48 h

Row | Structure (SMILES) | GI50 | TGI
52 | C=CCCCCC/C=C\[C@H](O)C#CC#C/C=C/CO | 60.3 µM | > 100 µM
53 | O/N=C/C1C(OCc2ccccc2)C(OCc2ccccc2)C(OCc2ccccc2)CN1Cc1ccccc1 (configuration not stated) | – | 29.5 µM and > 100 µM
54 | O=C1NC(=O)C(c2cnc3ccccn23)=C1c1cn2c3c(cc(F)cc13)CN(C(=O)N1CCCCC1)CC2 | 0.142 µM | 33.9 µM
55 | Clc1nc2ccccc2nc1CI | 18.9 µM | 44.9 µM
56 | Cn1nc(N)c2cc([C@@H]3Nc4ccc5[nH]ncc5c4[C@H]4C5CCC(C5)[C@@H]34)ccc21 (some centres not stated) | 0.32 µM | 11.7 µM
57 | O=C(O)C1C2C=CC(O2)C1C(=O)NCc1ccccn1 (configuration not stated) | – | > 100 µM
58 | O=C(OC(CNc1cc(=O)n(Cc2ccccc2)c(=O)n1Cc1ccccc1)CN1CCCC1)c1ccccc1 (configuration not stated) | > 100 µM | > 100 µM
59 | CCN(CC)CCCC(CNc1ccnc2cc(Cl)ccc12)c1ccc(Cl)cc1 (configuration not stated) | 1.79 µM and 1.35 µM | 3.54 µM and 2.76 µM
60 | CCOC(=O)CCCn1c(SC)nc2[nH]cc(-c3ccccc3)c2c1=O | 11.6 µM | 34.2 µM
61 | [Cl][Hg][c]1cc(Br)cc(Br)c1 | 3.31 µM | 15.7 µM
62 | CNC(=O)N(C)N=NCCCl | – | > 100 µM
63 | CCN1CCN(C(c2ccc(C(F)(F)F)cc2)c2ccc3cccnc3c2O)CC1 (configuration not stated) | 0.313 µM | 4.39 µM
64 | COc1ccc(C(C)=O)cc1N1C(=O)C2C(C1=O)C1(c3ccccc3)C(=O)C2(c2ccccc2)C(c2ccc(C)cc2)=C1c1ccc(C)cc1 (configuration not stated) | > 100 µM | > 100 µM
65 | O=C1c2cccc(NCCCNCCO)c2C(=O)c2cccc(NCCCNCCO)c21 | 6.32 µM and 2.35 µM | 18.6 µM and 7.37 µM
